In patent publication US20040127529A1, “Remedies for skin ulcer” (Fujisawa Pharmaceutical Co., Ltd., priority 1999, published 2004):

Test system: full-thickness wound in C57BL/KsJ db/db mice
Experiment: db/db mouse full-thickness wound model
Assay type: in vivo
Settings: for wound area reduction: 100 μl applied once daily for 18 days, day 18 following wound construction (vehicle 73%); for day from which wound area differs significantly (p<0.05) from the vehicle control group: once daily
Excerpt: Test Example 1 (db/db mouse full-thickness wound model)
Using 10-week-old male C57BL/KsJ db/db mice (db/db mice) and the corresponding control C57BL/KsJ +m/+m mice (+m/+m mice), the back hair coat was removed with a depilatory cream. After 3 days, using ophthalmological scissors, the skin in a circular area with a diameter of about 1.5 cm at the dorsal midline was removed to construct a full-thickness wound. Thereafter, the full-thickness wound area was covered with a poly-urethane film agent. During 18 consecutive days beginning the day of wound construction, 100 μl of the investigational compound solution or distilled water (vehicle) was taken in a syringe and applied through the polyurethane film once daily. The polyurethane film agent was changed every day and after disinfection with 3% H2O2, the drug was applied in the same manner as above. The wound area was measured by the tracing method under light anesthesia every other day as a rule. With the initial wound area at the beginning of drug application being taken as 100%, the fractional area at each day of measurement was calculated.

Compound: O=C(O)COc1cccc2c1CC[C@](O)(COC(=O)N(c1ccccc1)c1ccccc1)C2 [test compound, [[(2R)-5-(carboxymethoxy)-2-hydroxy-1,2,3,4-tetrahydronaphth-2-yl]methyl]N,N-diphenylcarbamate]
- early expansion of wound area (0.01% and 0.1% solutions): not observed
- overall conclusion on wound healing (0.01% and 0.1% solutions): wound healing-promoting action
- wound area reduction (0.01% solution): 90%
- day from which wound area differs significantly (p<0.05) from the vehicle control group (0.01% solution): ≥ 7 days
- wound area reduction (0.1% solution): 93%
- day from which wound area differs significantly (p<0.05) from the vehicle control group (0.1% solution): ≥ 4 days
